Results on 1 compound are retold here after US12383536B2, “CRF receptor antagonists and methods of use” (Neurocrine Biosciences, Inc., priority 2019, dated 2025).

This test has as its target T1, CRF1 receptor (Homo sapiens, UniProt P34998).
T1 sequence (P34998 24-415): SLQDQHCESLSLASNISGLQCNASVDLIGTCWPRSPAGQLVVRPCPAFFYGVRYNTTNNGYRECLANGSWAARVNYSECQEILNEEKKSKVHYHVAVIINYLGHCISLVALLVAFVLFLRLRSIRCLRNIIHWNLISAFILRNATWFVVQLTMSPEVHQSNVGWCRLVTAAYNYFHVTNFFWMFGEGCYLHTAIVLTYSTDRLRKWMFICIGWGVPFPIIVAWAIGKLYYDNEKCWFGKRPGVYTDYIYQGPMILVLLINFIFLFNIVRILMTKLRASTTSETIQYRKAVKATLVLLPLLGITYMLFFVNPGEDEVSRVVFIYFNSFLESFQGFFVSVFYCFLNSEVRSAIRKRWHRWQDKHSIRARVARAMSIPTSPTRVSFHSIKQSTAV
The experiment in a line: CRF1 receptor antagonist activity: kinetically derived affinity (Ki = k-1/k1), procedures of Fleck et al. The test is classed as binding. The following applies: kinetically derived affinity calculated from association (k1) and dissociation (k-1) rate constants; read-out: kinetic Ki. The procedure:
As reported in Fleck et al. (J. Pharmacology and Experimental Therapeutics, 341(2):518-531, 2012) (hereinafter “Fleck et al.” and incorporated by reference in it's entirely) the activity of a CRF1 receptor antagonists may be expressed as the kinetically derived affinity (Ki) calculated from the association (k1) and dissociation (k−1) rate constants by the following equation: Ki=k−1/k1
Compound 1 was evaluated according to these procedures, and the kinetic Ki was determined to be 1.14.

Regarding `C#CCN(c1nc(-c2cc(C)c(OC)cc2Cl)c(C)s1)C(CC1CC1)c1ccc(CO)c(F)c1` (racemic) [Compound 1, racemic {4-[1-{[4-(2-chloro-4-methoxy-5-methylphenyl)-5-methyl-1,3-thiazol-2-yl](prop-2-yn-1-yl)amino}-2-cyclopropylethyl]-2-fluorophenyl}methanol], the Ki was 1.14 nM.

The term Ki denotes a dissociation constant, usually derived from enzyme kinetics or from competition with a known ligand.
